Where a name gives a salt, the structure may show the parent alone.
Experiments:
[1] = Colloidal stability of the silica/lipid mixture as a function of lipid concentration (dynamic light scattering); format: physicochemical; settings: at low liposome contents
Description: Depending on the relative amount of liposome added, silica particles first aggregated at low lipid concentrations to form large aggregates, which disappeared upon adding more liposomes. […] Similar observations were also reported for polystyrene beads, where aggregation was attributed to liposome mediated nanoparticle assembly at low lipid concentrations. Therefore, to form supported bilayers with good colloidal stability, excess amount of liposomes (50 μg liposome per 0.5 mg silica) were used.

[2] = Lipid association with mesoporous silica nanoparticles; format: physicochemical; settings: <20 μg liposome per 0.5 mg silica particles; 5% DHPE-Texas Red label; neutral pH
Description: To measure the amount of lipid associated with silica nanoparticles as a function of lipid concentration, about 20 μL aliquots of 25 mg/mL silica nanoparticles were mixed with 1, 2, 3, 5, 7, 10, 20, and 30 μL of 2.5 mg/mL lipids. The lipids tested included DOPC, DOPS and DOTAP, all containing 5% DHPE-Texas Red labels. The mixtures were centrifuged. The Texas Red absorbance from the supernatant and the silica nanoparticles was measured.

[3] = Quantification of calcein encapsulated / concentration estimation inside mesoporous silica nanoparticles; format: physicochemical; settings: supported bilayers of different lipids
Description: To prepare supported bilayers that encapsulate calcein, the silica nanoparticles were first mixed with 250 μM calcein and liposomes were subsequently added. The remaining procedures were the same as described above.
Mesoporous silica nanoparticles (about 50 mg, no FITC modification) were dispersed in 2 mL water. About 5 μL of 100 mM calcein was added so the final dye concentration was ˜250 μM. The solution was divided into 50 μL aliquots and equal volumes of liposomes of different compositions were mixed to form supported bilayers. The supported bilayers were centrifuged and washed three times with 200 μL of 0.25×PBS to remove free calcein. Finally, about 50 μL of 1% SDS buffer solution was added to the precipitated supported bilayers to disrupt the lipid bilayer and release the calcein dye. About 150 μL of 0.25×PBS was then added to make the final volume to be about 200 μL and the tubes were centrifuged at 15000 rpm for about 2 minutes to precipitate silica nanoparticles. About 10 μL from the supernatant was transferred into a quartz microcuvette with a path length of about 1 cm to measure the absorbance at a wavelength of about 500 nm, which is proportional to the amount of calcein dye retained in the mesoporous silica nanoparticle.
Because the volume of this final solution was about 200 μL, the retained calcein in silica was then about 9 nmol. […]

[4] = test system: Chinese Hamster Ovary (CHO) cells; assay: Cellular uptake of supported bilayers (protocells); format: cell-based; settings: green fluorescence of cells
Description: Cell Culture: Chinese Hamster Ovary cells (CHO) were obtained from the American Type Culture Collection (ATCC) and maintained in K-12 media supplemented with about 10% fetal bovine serum, about 1% penicillin and about 1% streptomycin. The media were changed every two to three days and the cells were passaged by trypsinization. To prepare samples for confocal imaging, round glass cover slips were used for cell growth. The glass slides were treated with 0.1M KOH for at least 24 hours before use. Cells in the media were dropped onto the cover slips and the slips were kept in Petri dishes. The cells were kept in an incubator at 37° C. with 5% CO2 and 95% humidity. Cellular uptake of supported bilayers (protocells): about 1 mL of serum free media was warmed to about 37° C. and about 10 μL of the above prepared supported bilayers were added and vortexed. To study the uptake of supported bilayers by CHO cells, the cells were grown to ˜70% confluence. The old media was removed and fresh media with supported bilayers were introduced. The cells were incubated for about four hours at about 37° C. and free particles were washed away with PBS and media before imaging. Confocal fluorescence microscopy: A Bio-Rad Radiance 2100 confocal fluorescence microscope system was used for imaging cells. […]

| SMILES | average size of particles [1] | association of liposomes with silica nanoparticles [2] | calcein encapsulation efficiency (comparison of lipids) [3] | uptake of calcein into CHO cells [4] |
| --- | --- | --- | --- | --- |
| CCCCCCCC/C=C\CCCCCCCC(=O)OC[C@H](COP(=O)([O-])OCC[N+](C)(C)C)OC(=O)CCCCCCC/C=C\CCCCCCCC [DOPC, 1,2-Dioleoyl-sn-Glycero-3-Phosphocholine] | significant increase | almost quantitatively associated | – | – |
| CCCCCCCC/C=C\CCCCCCCC(=O)OC[C@H](COP(=O)(O)OC[C@H](N)C(=O)O)OC(=O)CCCCCCC/C=C\CCCCCCCC [DOPS, 1,2-Dioleoyl-sn-Glycero-3-[Phospho-L-Serine] (Sodium Salt)] | – | did not associate | – | – |
| CCCCCCCC/C=C\CCCCCCCC(=O)OCC(C[N+](C)(C)C)OC(=O)CCCCCCC/C=C\CCCCCCCC.[Cl-] (stereo not shown) [DOTAP, 1,2-Dioleoyl-3-Trimethylammonium-Propane (Chloride Salt)] | significant increase | almost quantitatively associated | highest | – |
| O=C(O)CN(CC(=O)O)Cc1cc2c(cc1O)Oc1cc(O)c(CN(CC(=O)O)CC(=O)O)cc1C21OC(=O)c2ccccc21 [calcein] | – | – | – | can not take |

Source: patent US8734816B2, “Porous nanoparticle supported lipid bilayer nanostructures” (STC.UNM, priority 2009, dated 2014)
